# Laboratory results from patent US9765075B2, “Substituted bridged urea analogs as sirtuin modulators” (GLAXOSMITHKLINE LLC, priority 2013, dated 2017).
# Like-named read-outs stand apart in the source and are kept apart here.
# Biological target: T1, SIRT1 (Homo sapiens, UniProt Q96EB6)
# T1 sequence (Q96EB6 1-747): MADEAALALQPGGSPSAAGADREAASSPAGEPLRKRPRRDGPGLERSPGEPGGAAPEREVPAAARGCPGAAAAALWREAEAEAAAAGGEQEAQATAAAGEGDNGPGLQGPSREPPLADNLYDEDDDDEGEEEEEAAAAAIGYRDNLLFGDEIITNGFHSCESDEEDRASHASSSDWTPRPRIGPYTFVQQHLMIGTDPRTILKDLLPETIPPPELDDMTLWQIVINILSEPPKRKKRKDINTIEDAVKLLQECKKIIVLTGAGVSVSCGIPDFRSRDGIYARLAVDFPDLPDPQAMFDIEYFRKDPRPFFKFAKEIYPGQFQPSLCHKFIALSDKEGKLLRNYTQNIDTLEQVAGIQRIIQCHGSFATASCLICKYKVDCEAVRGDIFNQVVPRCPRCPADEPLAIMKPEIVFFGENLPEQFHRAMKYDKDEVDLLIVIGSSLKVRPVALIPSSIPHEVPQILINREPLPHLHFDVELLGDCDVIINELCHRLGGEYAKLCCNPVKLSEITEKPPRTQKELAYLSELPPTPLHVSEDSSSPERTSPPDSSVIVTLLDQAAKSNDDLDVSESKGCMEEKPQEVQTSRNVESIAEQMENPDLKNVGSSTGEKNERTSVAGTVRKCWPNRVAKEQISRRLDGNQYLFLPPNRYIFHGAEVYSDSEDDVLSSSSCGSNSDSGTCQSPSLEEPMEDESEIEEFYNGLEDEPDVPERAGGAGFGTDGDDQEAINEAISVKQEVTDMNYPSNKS
# Test: Trp mass spectrometry assay (SIRT1 activation)
# Assay type: biochemical
# Settings: for Emax: percent maximum fold activation of SIRT1, read-out: Tryp % Fold Act
# Summary of the method: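 N-His-tagged SIRT1 (10 nM), expressed in E. coli, was incubated with 0.5 μM Ac-RHKK(Ac)W-NH2 peptide and 120 μM NAD+ for 25 min at 25 °C in HEPES pH 7.5 with […]. The reaction was stopped with formic acid and O-acetyl-ADP-ribose or deacetylated peptide was quantified by mass spectrometry. Results are given as EC1.5 and percent maximal activation relative to DMSO control.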
# [1] = concentration of test compound that results in 150% activation of SIRT1, Trp peptide substrate
# [2] = Trp mass spectrometry assay, EC1.5 = concentration of test compound that results in 150% activation of SIRT1
# [3] = Trp mass spectrometry assay, EC1.5 = concentration giving 150% activation of SIRT1
Tryp AVG EC1.5 (μM) [1],Emax (Trp peptide substrate) [%],Tryp AVG EC1.5 (μM) [2],Emax (Trp mass spectrometry assay) [%],Tryp AVG EC1.5 (μM) [3],SMILES
B (EC1.5 1-25 μM),≥ 150,–,–,–,O=C(Nc1cccnc1)N1c2nc(-c3cnn(C4CCCC4)c3)ccc2N2CC[C@H]1C2 [Example 587]
B (EC1.5 1-25 μM),≥ 150,–,–,–,COc1cc(NC(=O)N2c3nc(-c4ccnc(N5CC[C@H](F)C5)c4)ccc3N3CC[C@H]2C3)ncn1 [Example 437]
A (EC1.5<1 μM),≥ 150,–,–,–,O=C(Nc1ccccn1)N1c2nc(-c3cncc(C(F)(F)F)c3)ccc2N2CC[C@H]1C2 [Example 316]
–,–,A (EC1.5<1 μM),≥ 150,–,Cn1cc2cc(NC(=O)N3c4nc(-c5cccc(Cl)c5)ccc4N4CC[C@H]3C4)ccc2n1 [Example 118]
A (EC1.5<1 μM),≥ 150,–,–,–,COc1cc(NC(=O)N2c3nc(-c4cncc(Cl)c4)ccc3N3CC[C@H]2C3)ncn1 [Example 250]
A (EC1.5<1 μM),≥ 150,–,–,–,N#Cc1cncc(-c2ccc3c(n2)N(C(=O)Nc2ccccn2)[C@H]2CCN3C2)c1 [Example 373]
A (EC1.5<1 μM),≥ 150,–,–,–,O=C1C=CC2=C(c3ccc(NC(=S)NCc4ccc(NC(=O)N5c6nc(-c7cccc(C(F)(F)F)c7)ccc6N6CC[C@H]5C6)cc4)cc3C(=O)O)C3C=CC(O)=CC3OC2=C1 (some centres unmarked) [Example 530]
–,–,–,≥ 150,–,O=C(Nc1cncnc1)N1c2nc(-c3cccc(C(F)(F)F)c3)ccc2N2CC[C@H]1C2 [Example 23]
A (EC1.5<1 μM),≥ 150,–,–,–,Cc1cncc(-c2ccc3c(n2)N(C(=O)Nc2ccccn2)[C@H]2CCN3C2)c1 [Example 325]
–,–,A (EC1.5<1 μM),≥ 150,–,COc1cc(NC(=O)N2c3nc(-c4cccc(OC(F)(F)F)c4)ccc3N3CC[C@H]2C3)ncn1 [Example 135]
–,–,–,< 150,B (EC1.5 1-25 μM),O=C(Nc1cc(-c2cnco2)ccn1)N1c2nc(-c3cncc(C(F)(F)F)c3)ccc2N2C[C@@H](O)[C@H]1C2 [Example 726]
–,–,–,≥ 150,B (EC1.5 1-25 μM),O=C(NCc1ccc(NC(=O)N2c3nc(-c4cccc(C(F)(F)F)c4)ccc3N3CC[C@H]2C3)cc1)OC[C@@H]1[C@@H]2CCC#CCC[C@@H]21 [Example 796]
–,–,A (EC1.5<1 μM),≥ 150,–,O=C(Nc1ccccn1)N1c2nc(-c3cccc(N4CCCC4)c3)ccc2N2CC[C@H]1C2 [Example 136]
B (EC1.5 1-25 μM),≥ 150,–,–,–,Cc1ccc(-c2ccc3c(n2)N(C(=O)Nc2ccncn2)[C@H]2CCCN3C2)cn1 [Example 479]
–,–,A (EC1.5<1 μM),≥ 150,–,COc1cc(-c2cccc(C(F)(F)F)c2)nc2c1N1CC[C@@H](C1)N2C(=O)Nc1ccncc1 [Example 160]
A (EC1.5<1 μM),≥ 150,–,–,–,O=C(Nc1cncc(F)c1)N1c2nc(N3CCCC(C(F)(F)F)C3)ccc2N2CCC[C@H]1C2 (some centres unmarked) [Example 290]
B (EC1.5 1-25 μM),≥ 150,–,–,–,Cc1cc(-c2ccc3c(n2)N(C(=O)Nc2cnn(C)c2)[C@H]2CCN3C2)ccn1 [Example 482]
–,–,–,≥ 150,–,COc1cc(NC(=O)N2c3nc(-c4cccc(C(F)(F)F)c4)ccc3N3CCC[C@H]2C3)ncn1 [Example 41]
B (EC1.5 1-25 μM),≥ 150,–,–,–,COc1cc(NC(=O)N2c3nc(-c4cccc(N5CCOCC5)c4)ccc3N3CCC[C@H]2C3)ncn1 [Example 528]
A (EC1.5<1 μM),≥ 150,–,–,–,O=C(Nc1cnccn1)N1c2nc(-c3ccnc(N4CCC(C(F)(F)F)C4)c3)ccc2N2CC[C@H]1C2 (some centres unmarked) [Example 389]

Tryp AVG EC1.5 (μM) [1],Emax (Trp peptide substrate) [%],Tryp AVG EC1.5 (μM) [2],Emax (Trp mass spectrometry assay) [%],Tryp AVG EC1.5 (μM) [3],SMILES
A (EC1.5<1 μM),≥ 150,–,–,–,COc1cc(NC(=O)N2c3nc(-c4cncc(F)c4)ccc3N3CCC[C@H]2C3)ncn1 [Example 404]
–,–,–,≥ 150,A (EC1.5<1 μM),NCC#Cc1ccc(NC(=O)N2c3nc(-c4cccc(C(F)(F)F)c4)ccc3N3CC[C@H]2C3)cc1-c1cnco1 [Example 766]
–,–,–,≥ 150,–,COc1nccc(NC(=O)N2c3nc(-c4cccc(C(F)(F)F)c4)ccc3N3CC[C@H]2C3)n1 [Example 47]
–,–,–,≥ 150,A (EC1.5<1 μM),CC(=O)c1cccc(NC(=O)N2c3nc(-c4cccc(C(F)(F)F)c4)ccc3N3CC[C@H]2C3)c1 [Example 671]
–,–,–,≥ 150,A (EC1.5<1 μM),Cc1cc(-c2ccc3c(n2)N(C(=O)Nc2cc(-c4cnco4)ccn2)[C@H]2CCN3C2)ccn1 [Example 746]
A (EC1.5<1 μM),≥ 150,–,–,–,NCc1ccc(NC(=O)N2c3nc(-c4cccc(C(F)(F)F)c4)ccc3N3CCC[C@H]2C3)cc1 [444 (4)]
A (EC1.5<1 μM),≥ 150,–,–,–,O=C(Nc1cccc(-c2cnco2)c1)N1c2nc(-c3cccc(Cl)c3)ccc2N2CCC1CC2 [Example 497]
C (EC1.5>25 μM),≥ 150,–,–,–,O=C(Nc1cnccn1)N1c2nc(-c3cc(F)cc(F)c3)ccc2N2CC[C@H]1C2 [Example 397]
–,–,–,≥ 150,B (EC1.5 1-25 μM),CC(C)(C)OC(=O)NCc1cccc(-c2ccc3c(n2)N(C(=O)Nc2ccncc2)[C@H]2CCCN3C2)c1 [Example 795]
–,–,–,≥ 150,A (EC1.5<1 μM),O=C(Nc1cccc(-c2cnco2)c1)N1c2nc(-c3cncc(F)c3)ccc2N2CC[C@H]1C2 [Example 722]
–,–,–,≥ 150,A (EC1.5<1 μM),O=C(Nc1cccc(CN2CCNCC2)c1)N1c2nc(-c3cccc(C(F)(F)F)c3)ccc2N2CC[C@H]1C2 [Example 731]
–,–,–,< 150,–,CC(C)c1cccc(C(C)C)c1NC(=O)N1c2nc(-c3cccc(C(F)(F)F)c3)ccc2N2CC[C@H]1C2 [Example 67]
–,–,–,≥ 150,A (EC1.5<1 μM),O=C(Nc1cccnc1)N1c2nc(-c3cccc(C(F)(F)F)c3)ccc2N2C[C@@H](O)[C@H]1C2 [Example 663]
–,–,–,< 150,C (EC1.5>25 μM),C#CCOc1cc(-c2ccc3c(n2)N(C(=O)Nc2cccc(C4(C(F)(F)F)N=N4)c2)[C@H]2CCN3C2)cc(C(F)(F)F)c1 [Example 800]
–,–,–,≥ 150,A (EC1.5<1 μM),NCCCc1ccc(NC(=O)N2c3nc(-c4cccc(C(F)(F)F)c4)ccc3N3CC[C@H]2C3)cc1-c1cnco1 [Example 765]
–,–,B (EC1.5 1-25 μM),≥ 150,–,O=C(Nc1ccc(F)cn1)N1c2nc(-c3cccc(C(F)(F)F)c3)ccc2N2CC[C@@H]1C2 [Example 203]
A (EC1.5<1 μM),≥ 150,–,–,–,O=C(Nc1ccccn1)N1c2nc(-c3cccc(N4CCC(F)(F)C4)c3)ccc2N2CC[C@H]1C2 [Example 254]
–,–,–,≥ 150,–,O=C(Nc1cccnn1)N1c2nc(-c3cccc(C(F)(F)F)c3)ccc2N2CC[C@H]1C2 [Example 11]
B (EC1.5 1-25 μM),≥ 150,–,–,–,Cc1c(-c2ccc3c(n2)N(C(=O)Nc2cnccn2)[C@H]2CCN3C2)cnn1C [Example 532]
B (EC1.5 1-25 μM),≥ 150,–,–,–,COc1cc(NC(=O)N2c3nc(-c4ccnc(N5CCC(C(F)(F)F)C5)c4)ccc3N3CC[C@H]2C3)ncn1 (some centres unmarked) [Example 368]

SMILES,Tryp AVG EC1.5 (μM) [1],Emax (Trp peptide substrate) [%],Tryp AVG EC1.5 (μM) [2],Emax (Trp mass spectrometry assay) [%],Tryp AVG EC1.5 (μM) [3]
O=C(Nc1ccncn1)N1c2nc(N3CCCC(C(F)(F)F)C3)ccc2N2CCC[C@H]1C2 (some centres unmarked) [Example 294],B (EC1.5 1-25 μM),≥ 150,–,–,–
